According to publication PMC12203311, “Design, synthesis, in silico and in vitro evaluation of pyrrole–indole hybrids as dual tubulin and aromatase inhibitors with potent anticancer activities” (RSC Advances, 2025):

Legend:
CAKI-1 = assay: NCI60 five-dose screen; type: cell-based; settings: Homo sapiens, CAKI-1, renal cancer
HCC-2998 = assay: NCI60 five-dose screen; type: cell-based; settings: Homo sapiens, HCC-2998, colon cancer
786-0 = assay: NCI60 five-dose screen; type: cell-based; settings: Homo sapiens, 786-0, renal cancer
SNB-19 = assay: NCI60 five-dose screen; type: cell-based; settings: Homo sapiens, SNB-19, CNS cancer
SK-OV-3 = assay: NCI60 five-dose screen; type: cell-based; settings: Homo sapiens, SK-OV-3, ovarian cancer
NCI-H23 = assay: NCI60 five-dose screen; type: cell-based; settings: Homo sapiens, NCI-H23, NSC lung cancer
MDA-MB-435 = assay: NCI60 five-dose screen; type: cell-based, human; settings: Homo sapiens
A549/ATCC = assay: NCI60 five-dose screen; type: cell-based; settings: Homo sapiens, NSC lung cancer
SK-MEL-5 = assay: NCI60 five-dose screen; type: cell-based, human; settings: Homo sapiens
BT-549 = assay: NCI60 five-dose screen; type: cell-based; settings: Homo sapiens, BT-549, breast cancer
MDA-MB-468 = assay: NCI60 five-dose screen; type: cell-based; settings: Homo sapiens, MDA-MB-468, breast cancer
Human CYP19 (aromatase) = molecular target: T1, Human CYP19 (aromatase) (Homo sapiens, UniProt P11511); assay: Aromatase inhibition assay (DBF fluorometric substrate); type: biochemical; settings: active defined as IC50 < 12.5 µM
T1 construct: purchased GENTEST, Woburn, MA 456260; host or cells: baculovirus/insect cells
T1 sequence (P11511 1-503): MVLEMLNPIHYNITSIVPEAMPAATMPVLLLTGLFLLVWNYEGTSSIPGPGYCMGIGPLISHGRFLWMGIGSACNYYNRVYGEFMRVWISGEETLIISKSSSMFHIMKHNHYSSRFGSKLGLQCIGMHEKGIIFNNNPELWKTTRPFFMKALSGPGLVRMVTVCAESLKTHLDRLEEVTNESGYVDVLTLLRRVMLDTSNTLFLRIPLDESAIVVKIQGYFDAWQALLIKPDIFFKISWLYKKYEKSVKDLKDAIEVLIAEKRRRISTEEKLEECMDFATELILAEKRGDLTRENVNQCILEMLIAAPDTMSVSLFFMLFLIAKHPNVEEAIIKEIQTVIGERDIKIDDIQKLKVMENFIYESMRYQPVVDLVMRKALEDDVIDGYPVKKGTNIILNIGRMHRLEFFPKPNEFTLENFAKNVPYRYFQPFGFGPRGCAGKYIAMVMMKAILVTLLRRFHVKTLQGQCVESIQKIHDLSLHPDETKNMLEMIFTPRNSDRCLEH
In short: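 Supersomes expressing human CYP19 plus oxidoreductase (baculovirus/insect cell) with fluorometric substrate DBF; cofactor mixture pre-incubated 10 min at 37 °C, reaction run 30 min at 37 °C, stopped with NaOH. Fluorescence read at ex 490/em 530 nm.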

OVCAR-3 = assay: NCI60 five-dose screen; type: cell-based; settings: Homo sapiens, OVCAR-3, ovarian cancer
OVCAR-5 = assay: NCI60 five-dose screen; type: cell-based; settings: Homo sapiens, OVCAR-5, ovarian cancer
SNB-75 = assay: NCI60 five-dose screen; type: cell-based; settings: Homo sapiens, SNB-75, CNS cancer
COLO 205 = assay: NCI60 five-dose screen; type: cell-based, human; settings: Homo sapiens
HS 578T = assay: NCI60 five-dose screen; type: cell-based; settings: Homo sapiens, breast cancer
SF-268 = assay: NCI60 five-dose screen; type: cell-based; settings: Homo sapiens, SF-268, CNS cancer
MALME-3M = assay: NCI60 five-dose screen; type: cell-based; settings: Homo sapiens, melanoma
LOX IMVI = assay: NCI60 five-dose screen; type: cell-based; settings: Homo sapiens, melanoma
TK-10 = assay: NCI60 five-dose screen; type: cell-based; settings: Homo sapiens, TK-10, renal cancer
UACC-62 = assay: NCI60 five-dose screen; type: cell-based; settings: Homo sapiens, UACC-62, melanoma
DU-145 = assay: NCI60 five-dose screen; type: cell-based; settings: Homo sapiens, DU-145, prostate cancer
HL-60 (TB) = assay: NCI60 five-dose screen; type: cell-based; settings: Homo sapiens, leukemia
NCI-H226 = assay: NCI60 five-dose screen; type: cell-based; settings: Homo sapiens, NCI-H226, NSC lung cancer
[1] = read-out: LC50 (the source's name)

## O=C(N/N=C/c1[nH]ccc1Cl)c1[nH]c2ccc(Br)cc2c1-c1ccccc1 [Derivative 3g, (E)-5-Bromo-N′-((3-chloro-1H-pyrrol-2-yl)methylene)-3-phenyl-1H-indole-2-carbohydrazide]
CAKI-1
  GI50: 0.445 µM
CAKI-1; [1]
  CC50: 36.9 µM
HCC-2998
  GI50: 1.23 µM
HCC-2998; [1]
  CC50: 28.6 µM
786-0
  GI50: 2.58 µM
786-0; [1]
  CC50: 50.2 µM
SNB-19
  GI50: 1.06 µM
SNB-19; [1]
  CC50: 35.4 µM
SK-OV-3
  GI50: 11.6 µM
SK-OV-3; [1]
  CC50: 64.1 µM
NCI-H23
  GI50: 0.884 µM
NCI-H23; [1]
  CC50: 34.4 µM
MDA-MB-435; MDA-MB-435, MDA-MB-435, melanoma, read-out: LC50 (the source's name)
  CC50: 25.5 µM
MDA-MB-435; MDA-MB-435, melanoma
  GI50: 0.222 µM
A549/ATCC
  GI50: 0.838 µM
A549/ATCC; [1]
  CC50: 53.4 µM
SK-MEL-5; SK-MEL-5, SK-MEL-5, melanoma, read-out: LC50 (the source's name)
  CC50: 63 µM
SK-MEL-5; SK-MEL-5, melanoma
  GI50: 0.427 µM
BT-549
  GI50: 3.56 µM
BT-549; [1]
  CC50: 46.8 µM
MDA-MB-468
  GI50: 0.297 µM
MDA-MB-468; [1]
  CC50: 24.7 µM
Human CYP19 (aromatase)
  IC50: 2.6 ± 0.5 µM
OVCAR-3
  GI50: 0.409 µM
OVCAR-3; [1]
  CC50: 34.9 µM
OVCAR-5
  GI50: 1.1 µM
OVCAR-5; [1]
  CC50: 35.7 µM
SNB-75
  GI50: 0.325 µM
SNB-75; [1]
  CC50: 38.6 µM
COLO 205; COLO 205, COLO 205, colon cancer, read-out: LC50 (the source's name)
  CC50: 40.3 µM
COLO 205; COLO 205, colon cancer
  GI50: 1.66 µM
HS 578T
  GI50: 0.59 µM
HS 578T; [1]
  CC50: > 100 µM
SF-268
  GI50: 1.76 µM
SF-268; [1]
  CC50: 53 µM
MALME-3M
  GI50: 0.596 µM
MALME-3M; [1]
  CC50: 48.4 µM
LOX IMVI
  GI50: 0.555 µM
LOX IMVI; [1]
  CC50: 29.4 µM
TK-10
  GI50: 7.16 µM
TK-10; [1]
  CC50: 49.5 µM
UACC-62
  GI50: 0.411 µM
UACC-62; [1]
  CC50: 37 µM
DU-145
  GI50: 1.58 µM
DU-145; [1]
  CC50: 33.1 µM
HL-60 (TB)
  GI50: 0.891 µM
HL-60 (TB); [1]
  CC50: > 100 µM
NCI-H226
  GI50: 1.44 µM
NCI-H226; [1]
  CC50: 32.1 µM
